Publication PMC9571594, “Development of Semisynthetic Apoptosis-Inducing Agents Based on Natural Phenolic Acids Scaffold: Design, Synthesis and In-Vitro Biological Evaluation” (Molecules, 2022)
Where “and” joins values, the source holds several entries; their conditions need not be identical. Identical values can stand only once. Like-named read-outs stand apart in the source and are kept apart here.

Columns and labels:
Type in all cases: cell-based
Caco-2 cells [1] = experiment: Cell-cycle analysis by flow cytometry; details: for apoptotic population compared to the parent compound: Caco-2, in words, versus parent 1 or 2; for %Pre-G1 / %G0–G1 / %G2/M / %S: Caco-2 cells; for %Pre-G1: Pre-G1 = apoptotic population; for %G0–G1 / %G2/M / %S: cell-cycle distribution after treatment
Experimental: The potential candidates with anti-tumor effect on the Caco-2 cell line along with a high SI were chosen for cell-cycle analysis. The cell-cycle distribution and cell death were analyzed using Annexin V-FITC/PI staining and flow cytometry (Table 4, Figure 4).
In order to determine the percentage of viable, apoptotic and necrotic cells after treatment with our compounds, double-staining with fluorescein isothiocyanate (FITC) and PI was performed. Annexin V-FITC Apoptosis Detection Kit (BioVision, CA, USA) was used. Briefly, cultured Caco-2 were treated with the tested compounds or DMSO for 24h. Cells were then collected by centrifugation at 2000 rpm for 5 min, and the pellet was washed with PBS then centrifuged again at 2000 rpm for 5 min then resuspended in 500μL of the kit’s binding buffer before adding the Annexin V-FITC and PI. The cells were then incubated at room temperature in the dark for 5 min. […]
Assay : Cell Cycle Analysis
Kit used : ab139418_Propidium Iodide Flow Cytometry Kit/BD
Assay samples :Cell culture
(§1) Cpd. No. Cpd. No. Cpd. No. Cpd. No.

Caco-2 cells [2] = experiment: Annexin V-FITC/PI apoptosis assay by flow cytometry; parameters: key: % of cells; details: annexin-V FITC/PI staining, 24h
Experimental: In order to determine the percentage of viable, apoptotic and necrotic cells after treatment with our compounds, double-staining with fluorescein isothiocyanate (FITC) and PI was performed. Annexin V-FITC Apoptosis Detection Kit (BioVision, CA, USA) was used. Briefly, cultured Caco-2 were treated with the tested compounds or DMSO for 24h. Cells were then collected by centrifugation at 2000 rpm for 5 min, and the pellet was washed with PBS then centrifuged again at 2000 rpm for 5 min then resuspended in 500μL of the kit’s binding buffer before adding the Annexin V-FITC and PI. The cells were then incubated at room temperature in the dark for 5 min. Annexin V-FITC binding was measured using FACS Calibur flow cytometer (BD biosciences, USA) (Ex = 488 nm, Em = 533 nm, FL1 filter for annexin and FL2 filter for PI).

MMP-2 = experiment: RT-qPCR gene expression of MMP-2; details: for expression of MMP2 (in words): Figures 8 and 9; for MMP2 Fold Change: Caco2, relative to cont.Caco2 = 1
Experimental: (§2) The treated cells were harvested and the total RNA was extracted using RNeasy Mini Kit (Qiagen) according to the manufacturer’s instruction. The primers of the required genes (Table 6) were used for SYBR Green qRT-PCR using a one-step RT-PCR kit with SYBR Green (Bio-Rad). qRT-PCR was performed on Rotor Gene Q (Qiagen). […] Rotor-Gene 6000 Series Software was used for data analysis. and their HGNC ID was added (Table 6)
(§3) Researcher : Dr/Noura email: mob.
(§4) Reader : Rotorgene RT- PCR system
(§5) Kit used : Qiagen RNA extraction/BioRad syber green PCR MMX
(§6) Assay samples :Cell culture Lysate
as §1

Caco-2 cancer cell line = experiment: MTT cell viability assay, Caco-2; details: 48 h; for IC50: MTT, average of triplicates, semi-synthesized compounds (Table 3), read-out: IC50 (μM) on Caco-2 cancer cell line
Experimental: MCF-7 cells (Human breast adenocarcinoma), HepG2 (human hepatocellular carcinoma), A549 (human lung adenocarcinoma), Caco-2 (colon carcinoma), PANC-1 (human pancreatic cancer), and Vero cells (derived from normal kidney cells) were supplied by (Holding Company for Biological Products and Vaccines VACSERA; Giza, Egypt). The cells were cultured in PRMI 1640 medium (Lonza, Switzerland) supplemented with 10% fetal bovine serum (Gibco), 1% penicillin and 1% streptomycin (Sigma Aldrich, Saint Louis, MO, USA) at 37 °C under an atmosphere of 5% CO2 and 95% air.
The effect of parent compounds and their derivatives were assessed by (3-(4,5-dimethylthiazol-2-yl)-2,5diphenyl-tetrazolium bromide) MTT assay. […] After a merged sheet of cells developed, the growth media was decanted from the 96-well microtiter and refilled with different concentrations of compounds (µg/mL), and the plate was incubated at 37 °C for 48 h to minimize exposure to the dissolving agent (Supporting Information).
MTT solution (BIO BASIC CANADA INC) was prepared [5 mg/mL in phosphate buffered saline (PBS)], added to each well and incubated for 4 h, then after removing the media, 200 μL of DMSO was added to each well to solubilize the formazan crystals and the optical density of the formazan product was measured at 560 nm using microplate reader (mindray, MR-96A). The results were calculated as the mean of the three independent experiments. […]
Determination of sample cytotoxicity on cells (MTT protocol) […]
well) and incubated at 37°C for 24 hours to develop a complete monolayer sheet.
2- Growth medium was decanted from 96 well micro titer plates after confluent sheet of cells were formed, cell monolayer was washed twice with wash media.
3- two-fold dilutions of tested sample was made in RPMI medium with 2% serum […]
4- 0.1 ml of each dilution was tested in different wells leaving 3 wells as control, receiving only maintenance medium.
5- Plate was incubated at 37°C and examined. Cells were checked for any physical signs of toxicity, e.g. partial or complete loss of the monolayer, rounding, shrinkage, […]
6- MTT solution was prepared (5mg/ml in PBS) (BIO BASIC CANADA INC).
8- 20ul MTT solution were added to each well. Place on a shaking table, 150rpm for 5 minutes, to thoroughly mix the MTT into the media.
10) Dump off the media. (dry plate on paper towels to remove residue if necessary. […] 9 ش - ايلعلا هبضهلا - مطقملا / ىسيئرلا لمعملا […]

MMP-9 = experiment: RT-qPCR gene expression of MMP-9; details: for expression of MMP9 (in words): Figures 8 and 9; for MMP9 Fold Change: Caco2, relative to cont.Caco2 = 1
Experimental: as §2, §3, §4, §5, §6, §1

IC50 (Caco-2 cancer cell line; Homo sapiens, Caco-2)	Molecule	%Pre-G1 (Caco-2 cells [1])	Apoptosis Total (Caco-2 cells [2])	Early Apoptosis (Caco-2 cells [2])	Necrosis (Caco-2 cells [2])	%G0–G1 (Caco-2 cells [1])	%G2/M (Caco-2 cells [1])	%S (Caco-2 cells [1])	other results
60 µM	Cc1ccc(NC(=O)/C=C/c2ccc(O)c(O)c2)cc1 [Compound 5, (E)-3-(3,4-Dihydroxyphenyl)-N-(p-tolyl)acrylamide]	7.56 ± 0.39%	7.56	2.59	1.04	41.52 ± 2.61%	26.86 ± 2.75%	31.62 ± 1.79%	%G0–G1 (Caco-2 cells [1]; listed as CA3): 41.52%; %G2/M (Caco-2 cells [1]; listed as CA3): 26.86%; %S (Caco-2 cells [1]; listed as CA3): 31.62%; %Pre-G1 (Caco-2 cells [1]; listed as CA3): 7.56%; Late Apoptosis (Caco-2 cells [2]): 3.93
80 µM	COc1ccc(NC(=O)/C=C/c2ccc(O)c(O)c2)cc1 [Compound 8, (E)-N-(4-Methoxyphenyl)-3-(3,4-dihydroxyphenyl)acrylamide]	–	–	–	–	–	–	–	–
20 µM	O=C(/C=C/c1ccc(O)c(O)c1)Nc1ccc(Br)cc1 [Compound 7, (E)-N-(4-Bromophenyl)-3-(3,4-dihydroxyphenyl)acrylamide]	18.26% and 18.26 ± 1.42%	18.26	4.75	2.14	28.68 ± 1.64%	44.91 ± 3.42%	26.41 ± 2.15%	%G0–G1 (Caco-2 cells [1]; listed as CA6): 28.68%; %G2/M (Caco-2 cells [1]; listed as CA6): 44.91%; %S (Caco-2 cells [1]; listed as CA6): 26.41%; MMP2 Fold Change (MMP-2): 0.16±0.004 Fold Change; expression of MMP2 (in words) (MMP-2): greatest inhibition; MMP9 Fold Change (MMP-9): 0.29±0.006 Fold Change; expression of MMP9 (in words) (MMP-9): greatest inhibition
50 µM	O=C(/C=C/c1ccc(O)c(O)c1)NC1CCCCC1 [Compound 6, (E)-N-Cyclohexyl-3-(3,4-dihydroxyphenyl)acrylamide]	–	–	–	–	–	–	–	–
30 µM	O=C(/C=C/c1ccc(O)c(O)c1)NCc1ccccc1 [Compound 9, (E)-N-Benzyl-3-(3,4-dihydroxyphenyl)acrylamide]	9.62 ± 0.37%	9.62	3.72	1.36	38.51 ± 1.95%	30.05 ± 2.59%	31.44 ± 2.87%	%G0–G1 (Caco-2 cells [1]; listed as CA9): 38.51%; %G2/M (Caco-2 cells [1]; listed as CA9): 30.05%; %S (Caco-2 cells [1]; listed as CA9): 31.44%; %Pre-G1 (Caco-2 cells [1]; listed as CA9): 9.62%; Late Apoptosis (Caco-2 cells [2]): 4.54
80 µM	O=C(/C=C/c1ccc(O)c(O)c1)N1CCN(c2ccccc2)CC1 [Compound 3, (E)-3-(3,4-Dihydroxyphenyl)-1-(4-phenylpiperazin-1-yl)prop-2-en-1-one]	–	–	–	–	–	–	–	–

Continued, molecule first:

Molecule	IC50 (Caco-2 cancer cell line; Homo sapiens, Caco-2)	%Pre-G1 (Caco-2 cells [1])	Apoptosis Total (Caco-2 cells [2])	Early Apoptosis (Caco-2 cells [2])	Necrosis (Caco-2 cells [2])	%G0–G1 (Caco-2 cells [1])	%G2/M (Caco-2 cells [1])	%S (Caco-2 cells [1])	other results
(E)-3-(3-Hydroxy-4-methoxyphenyl)-N-(m-tolyl)acrylamide [Compound 17]	–	12.11 ± 0.97%	12.11	4.25	1.61	–	–	–	apoptotic population compared to the parent compound (Caco-2 cells [1]): non-significant decrease; %Pre-G1 (Caco-2 cells [1]; listed as FA8): 12.11%; Late Apoptosis (Caco-2 cells [2]): 6.25; expression of MMP2 (in words) (MMP-2): greatest inhibition; IC50 (Caco-2 cancer cell line): 20 µM; expression of MMP9 (in words) (MMP-9): greatest inhibition
COc1ccc(/C=C/C(=O)Nc2ccccc2N)cc1O [Compound 20, (E)-N-(2-Aminophenyl)-3-(3-hydroxy-4-methoxyphenyl)acrylamide]	–	8.62 ± 0.69%	8.62	2.19	1.24	39.12 ± 2.58%	26.84 ± 2.34%	34.04 ± 2.69%	apoptotic population compared to the parent compound (Caco-2 cells [1]): non-significant decrease; %G0–G1 (Caco-2 cells [1]; listed as FA12): 39.12%; %G2/M (Caco-2 cells [1]; listed as FA12): 26.84%; %S (Caco-2 cells [1]; listed as FA12): 34.04%; %Pre-G1 (Caco-2 cells [1]; listed as FA12): 8.62%; Late Apoptosis (Caco-2 cells [2]): 5.19; MMP2 Fold Change (MMP-2): 0.68±0.018 Fold Change; MMP9 Fold Change (MMP-9): 0.45±0.009 Fold Change
COc1ccc(/C=C/C(=O)N2CCN(c3ccccc3)CC2)cc1O [Compound 12, (E)-3-(3-Hydroxy-4-methoxyphenyl)-1-(4-phenylpiperazin-1-yl)prop-2-en-1-one]	40 µM	–	–	–	–	–	–	–	–
(E)-3-(3-Hydroxy-4-methoxyphenyl)-N-(p-tolyl)acrylamide [Compound 14]	–	16.51% and 16.51 ± 0.63%	16.51	3.99	2.26	–	–	–	IC50 (Caco-2 cancer cell line): 50 µM
COc1cccc2c1C(=O)c1c(O)c3c(c(O)c1C2=O)C[C@@](O)(C(=O)CO)C[C@@H]3O[C@H]1C[C@H](N)[C@H](O)[C@H](C)O1 [Doxorubicin]	–	–	–	–	–	–	–	–	IC50 (μM) ± SD Caco-2 (Caco-2 cancer cell line): 0.17 ± 1.1 µM
O=C(/C=C/c1ccc(O)c(O)c1)Nc1ccc(O)cc1 [Compound 4, (E)-3-(3,4-Dihydroxyphenyl)-N-(4-hydroxyphenyl)acrylamide]	70 µM	–	–	–	–	–	–	–	–
COc1ccc(NC(=O)/C=C/c2ccc(OC)c(O)c2)cc1 [Compound 13, (E)-3-(3-Hydroxy-4-methoxyphenyl)-N-(4-methoxyphenyl)acrylamide]	80 µM	–	–	–	–	–	–	–	–
COc1ccc(NC(=O)/C=C/c2ccc(O)c(OC)c2)cc1 [Compound 16, (E)-3-(4-Hydroxy-3-methoxyphenyl)-N-(4-methoxyphenyl)acrylamide]	80 µM	–	–	–	–	–	–	–	–
O=C(/C=C/c1ccc(O)c(O)c1)Nc1ccc(Cl)cc1 [Compound 10, (E)-N-(4-Chlorophenyl)-3-(3,4-dihydroxyphenyl)acrylamide]	9 µM	23.42% and 23.42 ± 2.12%	23.42	7.59	3.14	29.75 ± 1.73%	41.98 ± 2.18%	28.27 ± 1.99%	%G0–G1 (Caco-2 cells [1]; listed as CA11): 29.75%; %G2/M (Caco-2 cells [1]; listed as CA11): 41.98%; %S (Caco-2 cells [1]; listed as CA11): 28.27%
